# Data taken from article PMC10075506, “Synthesis and biological evaluation of flavonoid-based IP6K2 inhibitors” (Journal of Enzyme Inhibition and Medicinal Chemistry, 2023).
# What was measured:
# human IP6K1 = biological target: T1, human IP6K1 (Homo sapiens, UniProt Q92551); test: ADP-Glo kinase assay, IP6K1 (Liao et al.'s conditions); format: biochemical; conditions: for IC50: IP6K1 60 nM, ATP 1 mM
# T1 construct: made in house; host or cells: Sf9 insect cells (baculovirus, pFASTBAC1)
# Description: (§1) Inhibition activity of the synthesised compounds against IP6K2 was assessed using ADP-Glo™ Kinase Assay (Promega). Kinase reaction mixtures were first shaking-incubated with individual drugs (diluted in DMSO) for pre-incubation at RT for 15 min, and then ATP was added (final 10 µM) to initiate the reaction. 20 ng of recombinant human IP6K2 protein was used per 15 µL of IP6K2 reaction mixture (50 mM Tris-HCl, pH 6.8, 10 mM MgCl2, 2.5 mM DTT, 0.02% Triton X-100, 10 µM IP6). […] Each detection set was prepared on 96-well (25 µL kinase reaction) as duplicates. Resulting enzyme activity was calculated as following; Activity (%) = ([ADPexperimental]/[ADPDMSO])×100. For IC50 estimation of compounds, kinase assay was prepared on 384-well plates (20 ng of recombinant human IP6K2 protein was used per 5 µL kinase reaction mixture) as duplicates. The final concentrations for IP6K2, IP6, and ATP were 80 nM, 10 μM, and 10 μM, respectively. […] IP6K1 and IP6K3 assays were performed by Liao et al.’s conditions.[25] The final concentrations for IP6K1, IP6, and ATP were 60 nM, 100 μM, and 1 mM, respectively. […] All statistical analyses including IC50 estimation was performed using Prism 7 or Prism 9 (Graphpad Software).
# (§2) Full-length human IP6K1, IP6K2, or IP6K3 cDNA was subcloned into pFASTBAC1 plasmid (Gibco) with an N-terminal FLAG epitope sequence, and baculovirus was generated according to the manufacturer’s instructions. Sf9 insect cells were infected with baculovirus and incubated for 72 h. The cells were resuspended in lysis buffer [20 mM Tris–HCl (pH 7.9), 500 mM NaCl, 4 mM MgCl2, 0.4 mM EDTA, 2 mM DTT, 20% glycerol, 1 mM PMSF, and protease inhibitor cocktail (Roche)] and then disrupted with a Dounce homogeniser (pestle A, 3 series of 10 strokes with 10 min interval).
# recombinant human IP6K2 = biological target: T2, recombinant human IP6K2 (Homo sapiens, UniProt Q9UHH9); test: ADP-Glo kinase assay, IP6K2; format: biochemical
# T2 construct: made in house; host or cells: Sf9 insect cells (baculovirus, pFASTBAC1)
# T2 sequence (Q9UHH9 1-426): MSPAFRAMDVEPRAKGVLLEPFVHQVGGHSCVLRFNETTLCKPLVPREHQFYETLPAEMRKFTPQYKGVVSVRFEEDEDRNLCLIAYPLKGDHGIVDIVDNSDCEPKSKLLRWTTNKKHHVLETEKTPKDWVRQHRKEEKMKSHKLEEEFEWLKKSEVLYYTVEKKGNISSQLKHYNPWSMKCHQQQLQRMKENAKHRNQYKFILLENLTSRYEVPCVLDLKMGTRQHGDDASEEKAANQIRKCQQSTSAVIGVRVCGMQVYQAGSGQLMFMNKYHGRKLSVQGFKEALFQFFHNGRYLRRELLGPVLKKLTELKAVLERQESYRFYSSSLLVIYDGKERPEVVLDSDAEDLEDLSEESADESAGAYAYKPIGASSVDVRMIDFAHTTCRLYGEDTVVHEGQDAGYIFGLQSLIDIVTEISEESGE
# Description: as §1, §2
# human IP6K3 = biological target: T3, human IP6K3 (Homo sapiens, UniProt Q96PC2); test: ADP-Glo kinase assay, IP6K3 (Liao et al.'s conditions); format: biochemical; conditions: for IC50: IP6K3 120 nM, ATP 1 mM
# T3 construct: made in house; host or cells: Sf9 insect cells (baculovirus, pFASTBAC1)
# T3 sequence (Q96PC2 whole entry): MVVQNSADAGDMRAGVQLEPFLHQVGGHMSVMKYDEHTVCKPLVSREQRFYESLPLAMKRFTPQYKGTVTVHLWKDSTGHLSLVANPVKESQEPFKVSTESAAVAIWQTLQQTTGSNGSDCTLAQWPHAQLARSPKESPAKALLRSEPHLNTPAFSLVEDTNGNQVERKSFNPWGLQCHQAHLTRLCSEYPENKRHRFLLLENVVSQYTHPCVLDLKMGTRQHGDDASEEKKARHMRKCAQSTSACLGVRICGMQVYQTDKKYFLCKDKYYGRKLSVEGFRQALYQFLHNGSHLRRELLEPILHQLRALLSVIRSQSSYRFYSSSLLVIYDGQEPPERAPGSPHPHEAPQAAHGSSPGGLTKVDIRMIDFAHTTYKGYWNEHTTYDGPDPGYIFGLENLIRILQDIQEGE
# Description: as §1, §2
# [1] = system: IP7 synthesis in human colorectal cell line (HCT116); test: cellular IP7 synthesis in HCT116, HPLC of [3H]inositol-labelled inositol phosphates; format: cell-based; conditions: HCT116, compound 10 μM for 6 h
# Description: For HPLC analysis, 2 × 10^5 cells/60 mm dish of HCT116 were treated with 60 μCi [^3H] myo-inositol (NET1177001MC, PerkinElmer). After 3 days, soluble inositol polyphosphates from HCT116 (human colorectal cancer cell line) were extracted and analysed as previously described.[39] Intracellular inositol phosphates were extracted with acid extraction buffer (1M HClO4, 3 mM EDTA, and 0.1 mg/mL IP6), and neutralised with neutralisation buffer (1M K2CO3 and 3 mM EDTA). The lysates were centrifuged for 10 min, and the soluble fraction was resolved by HPLC as described earlier.[39] The lipid pellet was lysed with 0.1% Triton X-100 in NaOH overnight. […] Quantity of inositol phosphates was presented as total counts/min (CPM) normalised by total lipid contents.
# in vitro = conditions: PAMPA
# Excerpt: Supporting Information Table 1.
# artificial membrane permeability assay (PAMPA) as described previously (reference). The apparent permeability
# (ranitidine, nadolol, hydrochlorothiazide).
# Data are mean ± S.D. (n=3).
# Reference: Oh, M.H., Lee, H.J., Jo, S.H., et al. Development of Cassette PAMPA for Permeability Screening. Biol Pharm
# hIP6K2 = conditions: read-out: IC50 value of quercetin (IP6K2), reported; different IP6K2 enzyme concentration and reaction temperature; cited from earlier work
# [2] = final concentration of ATP and IP6 adjusted to 10 μM
# T1 sequence (Q92551 whole entry): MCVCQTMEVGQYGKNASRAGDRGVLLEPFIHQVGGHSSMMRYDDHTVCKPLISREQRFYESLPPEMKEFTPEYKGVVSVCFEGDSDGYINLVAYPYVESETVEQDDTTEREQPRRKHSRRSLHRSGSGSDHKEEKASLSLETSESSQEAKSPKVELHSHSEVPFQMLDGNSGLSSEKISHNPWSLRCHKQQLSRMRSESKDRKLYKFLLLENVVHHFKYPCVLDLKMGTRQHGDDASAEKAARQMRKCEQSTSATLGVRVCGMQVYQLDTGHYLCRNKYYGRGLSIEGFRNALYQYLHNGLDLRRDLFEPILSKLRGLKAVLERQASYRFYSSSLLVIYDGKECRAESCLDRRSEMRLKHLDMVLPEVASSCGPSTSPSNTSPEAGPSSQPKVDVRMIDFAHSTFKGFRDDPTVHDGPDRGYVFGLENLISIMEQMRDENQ
compound,measurement,setting,value
"O=C(O)c1cccc(-c2oc3cc(O)c(O)cc3c(=O)c2O)c1 [Compound 20s, 3–(3,6,7-Trihydroxy-4-oxo-4H-chromen-2-yl)benzoic acid]",IC50,human IP6K1; IP6 100 µM,2870 nM
same,IP6K1 /IP6K2 (IC50 ratio),"human IP6K1; IP6K1 at ATP 1 mM, IP6 100 µM, IP6K2 at ATP 10 µM, IP6 10 µM",5.22
same,IC50 ratio of IP6K1/IP6K2,human IP6K1; [2],4.65 fold
same,IC50,recombinant human IP6K2,550 ± 1 nM
same,fold more potent IP6K2 inhibition than quercetin,recombinant human IP6K2; IC50 compared with quercetin,5 fold
same,fold more potent than compound 20r (IP6K2),recombinant human IP6K2; meta -COOH versus para -COOH,approximately 7 fold
same,IC50,human IP6K3; IP6 100 µM,3560 nM
same,IP6K3 /IP6K2 (IC50 ratio),"human IP6K3; IP6K3 at ATP 1 mM, IP6 100 µM, IP6K2 at ATP 10 µM, IP6 10 µM",6.47
same,IC50 ratio of IP6K3/IP6K2,human IP6K3; [2],2.32 fold
same,cellular IP7 levels,[1],failed to reduce cellular IP7 levels
same,Papp,in vitro,< 0.18 ×10⁻⁶ cm/s
same,Permeability class,in vitro,Low
"O=c1c(O)c(-c2ccc(O)c(O)c2)oc2cc(O)cc(O)c12 [Quercetin, 3,3′,4′,5,7-pentahydroxylflavone]",IC50,human IP6K1; IP6 100 µM,1100 nM
same,IC50,human IP6K3; IP6 100 µM,4350 nM
same,Papp,in vitro,0.54 ×10⁻⁶ cm/s
same,Permeability class,in vitro,Low
"CNC(=C[N+](=O)[O-])NCCSCc1ccc(CN(C)C)o1 [Ranitidine, ranitidine]",Papp,in vitro,< 0.18 ×10⁻⁶ cm/s
same,Permeability class,in vitro,Low
